Values quoted from earlier work as cited in publication PMC2912417 (Biochemistry, 2010).
Where two headings read alike, the source gives them in different places.

Assays:
[1] = peptide alone

For IGLMVGGVVIA [Aβ(32–42)], the “Toxicity of the peptide itself” value (Aβ42-induced toxicity) is listed as “slightly toxic itself” and the “Aggregation / fibril formation of the peptide itself” value [1] is listed as “predominantly amorphous, rather than fibrillar, aggregates”.
For KGAIIGLMVGGVVIA [Aβ(28–42)], the “Toxicity of the peptide itself” value (Aβ42-induced toxicity; cell-viability screen) is listed as “highly toxic itself”.
In the case of LMVGGVV [Aβ(34–40)], the “Inhibition of Aβ42-induced toxicity” value (Aβ42-induced toxicity; cell-viability screen under similar conditions) is given as “inactive”.
